Results from ChEMBL document CHEMBL6115010, “Targeting glioma with heteroaromatic alkaloids: A review of potential therapeutics” (Bioorg Med Chem, 2025).
In brackets after ≈: the same amount, converted by molar mass.

Assays:
[1] = Antiproliferative activity against human SWO-38cells assessed as reduction in cell growth measured for 24 hrs by MTT assay; format: functional, cell-based; conditions: SWO-38, 24 h
ECV-304 [2] = assay: Cytotoxicity against human ECV-304 cells assessed as reduction in cell growth by measuring lethal concentration incubated for 72 hrs by MTT assay; format: functional; conditions: read-out: LC50 (the source's name)
[3] = Cytotoxicity against rat RT-2 cells assessed as reduction in cell growth by measuring lethal concentration incubated for 24 hrs by MTT assay; format: functional; conditions: RT2, read-out: LC50 (the source's name)
U-251 [4] = assay: Antiproliferative activity against human U-251MG cells assessed as reduction in cell growth measured for 24 hrs by MTT assay; format: functional, cell-based; conditions: U-251, 24 h
U-87 MG [5] = assay: Antiproliferative activity against human U-87 MG cells assessed as reduction in cell growth measured for 24 hrs by MTT assay; format: functional, cell-based, U-87MG ATCC
[6] = Cytotoxicity against rat RT-2 cells assessed as reduction in cell growth by measuring lethal concentration incubated for 72 hrs by MTT assay; format: functional; conditions: RT2, read-out: LC50 (the source's name)
ECV-304 [7] = assay: Cytotoxicity against human ECV-304 cells assessed as reduction in cell growth by measuring lethal concentration incubated for 24 hrs by MTT assay; format: functional; conditions: read-out: LC50 (the source's name)
U-87 MG [8] = assay: Antitumor activity against human U-87 MG cells xenografted in BALB/c nude mouse assessed as reduction in tumor growth at 5 mg/kg, iv administered once daily for 16 days relative to control; format: functional, U-87MG ATCC; set-up: scale not given: the % may be the effect or the level left; conditions: time 16 day
U-251 [9] = assay: Antiproliferative activity against human U-251MG cells assessed as reduction in cell viability incubated for 48 hrs by SRB assay; format: functional, cell-based; conditions: U-251, 48 h
SF-268 = assay: Antiproliferative activity against human SF-268 cells assessed as inhibition of cell growth by MTT assay; format: functional; conditions: read-out: ED50 (the source's name)
[10] = Antiproliferative activity against human TMZ-sensitive LN-229 cells assessed as reduction in cell growth incubated for 48 hrs by MTT assay; format: functional, cell-based, TMZ-sensitive LN-229 cell; conditions: LN-229, 48 h
[11] = Antiproliferative activity against human TMZ-resistant LN-229 cells assessed as reduction in cell growth incubated for 48 hrs by MTT assay; format: functional, cell-based, TMZ-resistant LN-229 cell; conditions: LN-229, 48 h
[12] = Antitumor activity against mouse GL261 cells implanted in C57BL/6 mouse model assessed as increase in tumor growth delay under radiation at 150 mg/kg via oral gavage (reference value: 12.7+/-2.8 days); format: functional
C6 [13] = assay: Antiproliferative activity against rat C6 cells assessed as reduction in cell growth measured for 96 hrs by WST-1 assay; format: functional, cell-based; conditions: C6, 96 h
[14] = Antiproliferative activity against human TMZ-sensitive A-172 cells assessed as reduction in cell growth incubated for 48 hrs by MTT assay; format: functional, cell-based, TMZ-sensitive A-172 cell; conditions: A 172, 48 h
T98G [15] = assay: Induction of apoptosis in human T98G cells assessed as fold increase in apoptosis at 10 uM under radiation measured after 24 hrs by annexin V and PI staining based flow cytometry analysis (Rvb=3.7); format: functional
[16] = Antiproliferative activity against human TMZ-sensitive U-251MG cells assessed as reduction in cell growth incubated for 48 hrs by MTT assay; format: functional, cell-based, TMZ-sensitive U-251MG cell; conditions: U-251, 48 h
HUVEC [17] = assay: Antivascular activity against HUVEC cells assessed as inhibition of capillary tube formation at 150 incubated for 6 hrs by microscopy based analysis relative to control; format: functional, Homo sapiens; set-up: scale not given: the % may be the effect or the level left
[18] = Downregulation of HIF-1alpha expression in human T98G cells at 150 uM relative to control; format: functional
U-118-MG = assay: Antiproliferative activity against human U-118-MG cells assessed as reduction in inhibition of cell growth incubated for 72 hrs by MTT assay; format: functional, cell-based
HUVEC [19] = assay: Antivascular activity against HUVEC cells assessed as inhibition of capillary tube formation at 50 incubated for 6 hrs by microscopy based analysis relative to control; format: functional, Homo sapiens; set-up: scale not given: the % may be the effect or the level left
[20] = Antiproliferative activity against human TMZ-resistant A-172 cells assessed as reduction in cell growth incubated for 48 hrs by MTT assay; format: functional, cell-based; conditions: TMZ-resistant A-172 cell
U-87 MG [21] = assay: Antiproliferative activity against human U-87 MG cells assessed as reduction in inhibition of cell growth incubated for 72 hrs by MTT assay; format: functional, cell-based, U-87MG ATCC
C6 [22] = assay: Antitumor activity against rat C6 cells implanted in athymic nude mouse assessed as reduction in tumor volume at 300 mg/kg, IC administered once daily for 21 days relative to control; format: functional; set-up: scale not given: the % may be the effect or the level left; conditions: time 21 day
[23] = Downregulation of HIF-1alpha expression in human U-87 MG cells at 150 uM relative to control; format: functional, U-87MG ATCC
C6 [24] = assay: Anticancer activity against rat C6 cells assessed as reduction in cell growth at 10 ug/ml incubated for 24 hrs by MTT assay relative to control; format: functional
[25] = Antitumor activity against mouse GL261 cells implanted in C57BL/6 mouse model assessed as increase in tumor growth delay without radiation at 150 mg/kg via oral gavage (reference value: 12.7+/-2.8 days); format: functional
LN-229 = assay: Antiproliferative activity against human LN-229 cells assessed as reduction in inhibition of cell growth incubated for 72 hrs by MTT assay; format: functional, cell-based; conditions: LN-229, 72 h
HUVEC [26] = assay: Antivascular activity against HUVEC cells assessed as inhibition of capillary tube formation at 100 incubated for 6 hrs by microscopy based analysis relative to control; format: functional, Homo sapiens; set-up: scale not given: the % may be the effect or the level left
[27] = Antitumor activity against mouse GL261 cells implanted in C57BL/6 mouse model assessed as fold reduction in cell proliferation under radiation at 150 mg/kg via oral gavage (reference value: 3.3 fold); format: functional
T98G [28] = assay: Antiproliferative activity against human T98G cells assessed as reduction in inhibition of cell growth incubated for 72 hrs by MTT assay; format: functional, cell-based
C6 [29] = assay: Antitumor activity against rat C6 cells implanted in athymic nude mouse assessed as reduction in tumor volume at 300 mg/kg, sc administered once daily for 21 days relative to control; format: functional; set-up: scale not given: the % may be the effect or the level left; conditions: time 21 day
[30] = Antiproliferative activity against human TMZ-resistant U-251MG cell assessed as reduction in cell growth incubated for 48 hrs by MTT assay; format: functional, cell-based; conditions: U-251, 48 h
T98G [31] = assay: Antiproliferative activity against human T98G cells assessed as reduction in cell viability incubated for 72 hrs by WST-8 reagent based assay; format: functional
[32] = Inhibition of colony formation in human U-251MG cells assessed as reduction in number of cell clone measured after 14 days by crystal violet staining based microscopic analysis; format: functional; conditions: 336 h
T98G [33] = assay: Inhibition of colony formation in human T98G cells assessed as reduction in number of cell clone measured after 14 days by crystal violet staining based microscopic analysis; format: functional; conditions: 336 h
U-87 MG [34] = assay: Antitumor activity against human U-87 MG cells xenografted in BALB/c nude mouse model assessed as reduction in tumor volume at 40 mg/kg, ip administered twice a day for 4 days relative to control; format: functional, U-87MG ATCC; set-up: scale not given: the % may be the effect or the level left; conditions: time 4 day
T98G [35] = assay: Anticancer activity against human T98G cells assessed as reduction in cell viability; format: functional, cell-based
U-87 MG [36] = assay: Antiproliferative activity against human U-87 MG cells assessed as reduction in cell viability incubated for 72 hrs by WST-8 reagent based assay; format: functional, U-87MG ATCC
SH-SY5Y = assay: Cytotoxicity against human SH-SY5Y cells measured for 48 hrs by SRB assay; format: functional, cell-based
[37] = Cytotoxicity against human U-87 MG cells harboring EGFR mutation assessed as reduction in cell viability incubated for 72 hrs by resazurin dye based assay; format: functional, U-87MG ATCC
[38] = Antitumor activity against rat C6/ACNUcells implanted in Wistar rat assessed as increase in life span at 250 mg/kg relative to control; format: functional, C6/ACNU
ADR5000 cell line = assay: Cytotoxicity against human CEM/ADR5000 cells assessed as reduction in cell viability incubated for 72 hrs by resazurin dye based analysis; format: functional; conditions: ADR5000, 72 h
CCRF-CEM = assay: Cytotoxicity against human CCRF-CEM cells assessed as reduction in cell viability incubated for 72 hrs by resazurin dye based analysis; format: functional
9L = assay: Cytotoxicity against rat 9L cells assessed as reduction in cell viability incubated for 24 hrs by tryphan-blue dye based assay; format: functional
C6 [39] = assay: Antitumor activity against rat C6 cells implanted in Wistar rat assessed as increase in life span at 250 mg/kg relative to control; format: functional
[40] = Cytotoxicity against human GBM cells harboring EGFR mutation assessed as reduction in cell viability incubated for 72 hrs by resazurin dye based assay; format: functional
[41] = Cytotoxicity against rat 9L/ACNU cells assessed as reduction in cell viability incubated for 24 hrs by tryphan-blue dye based assay; format: functional

With COc1ccc2cc1Oc1ccc(cc1)C[C@H]1c3cc(c(OC)cc3CCN1C)Oc1c(OC)c(OC)cc3c1[C@H](C2)N(C)CC3 [FANCHININ] the IC50 [1] was 50 µg/mL (≈ 80.4 µM), the CC50 (ECV-304 [2]) was 25.1 µM and the CC50 [3] was 22.6 µM. For the same molecule, the IC50 (U-251 [4]) was 56.1 µg/mL (≈ 90.1 µM), the IC50 (U-87 MG [5]) was 10.8 µg/mL (≈ 17.4 µM) and the CC50 [6] was 11.3 µM. The CC50 (ECV-304 [7]) was 34.2 µM.
O=C1c2ccccc2-[n+]2ccc3c([nH]c4ccccc43)c21 [FASCAPLYSIN] showed an Activity (U-87 MG [8]) of 54.92%.
In the case of O[C@H]1[C@H]2c3cc4c(cc3CN3CCC(=C[C@@H]1O)[C@H]23)OCO4 [LYCORINE], the IC50 (U-251 [9]) is reported as 10 µM.
Molecule O=C1N[C@@H]2C(=C[C@H](O)[C@@H](O)[C@H]2O)c2cc3c(c(O)c21)OCO3 [NARCICLASINE] has an EC50 (SF-268) of 0.021 µg/mL (≈ 0.0683 µM).
In the case of COc1ccc2c(c1OC)C(=O)O[C@@H]2[C@H]1c2c(cc3c(c2OC)OCO3)CCN1C [NOSCAPINE], the IC50 [10] is reported as 70 µM, the IC50 [11] is reported as 75 µM and the Time [12] is reported as 18 days. The IC50 (C6 [13]) was 250 µM, the IC50 [14] was 20 µM and the “fold change (FC)” value (T98G [15]) was 6.4. For the same molecule, the IC50 [16] was 40 µM, the Activity (HUVEC [17]) was 40% and the Activity [18] was 90%. The IC50 (U-118-MG) was 91 µM, the Activity (HUVEC [19]) was 30% and the IC50 [20] was 60 µM. It also gave an IC50 (U-87 MG [21]) of 131 µM, an Activity (C6 [22]) of 78% and an Activity [23] of 60%. It also gave an inhibition at 10 µg/mL (C6 [24]) of 49%, a Time [25] of 8 days and an IC50 (LN-229) of 86 µM. The Activity (HUVEC [26]) was 40%, the “fold change (FC)” value [27] was 5.6 and the IC50 (T98G [28]) was 97 µM. It also gave an Activity (C6 [29]) of 60% and an IC50 [30] of 30 µM.
COc1ccc(Cc2nccc3cc(OC)c(OC)cc23)cc1OC [PAPAVERINE] showed an EC50 (T98G [31]) of 42 µM, an EC50 [32] of 11 µM and an EC50 (T98G [33]) of 4.5 µM. The Activity (U-87 MG [34]) was 63%, the EC50 (T98G [35]) was 3.1 µM and the EC50 (U-87 MG [36]) was 42 µM.
Molecule OCc1ccc(-c2nccc3c2[nH]c2ccccc23)o1 [PERLOLYRIN] has an IC50 (SH-SY5Y) of 23.9 µM.
With COC(=O)[C@H]1[C@H]2C[C@@H]3c4[nH]c5cc(OC)ccc5c4CCN3C[C@H]2C[C@@H](OC(=O)c2cc(OC)c(OC)c(OC)c2)[C@@H]1OC [RESERPINE] the IC50 [37] was 9.15 µM, the Activity [38] was 142% and the IC50 (ADR5000 cell line) was 13.2 µM. The IC50 (CCRF-CEM) was 14.5 µM, the IC50 (9L) was 1 µM and the Activity (C6 [39]) was 143%. It also gave an IC50 [40] of 88 µM and an IC50 [41] of 2 µM.
